Values of other authors as cited in US4933445A, “Heteroazabenzobicyclic carboxamide 5-HT3 antagonists” (Rorer Pharmaceutical Corporation, priority 1988, dated 1990).

System: 5-HT3 receptor
Conditions: becomes more prominent at higher doses

## CCN(CC)CCNC(=O)c1cc(Cl)c(N)cc1OC [Metoclopramide]
  5-HT3-antagonist activity: weak
